Assay results published in PubChem BioAssay (NCI).
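Protocol summary: plate cells (96-well), add compound at 5 concentrations, incubate 48 h, interpolate endpoints linearly. Here, GI50 denotes the concentration required for 50% inhibition of growth. TGI: total growth inhibition.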

Legend:
Assay in all cases: inhibition of tumour cell growth, NCI panel, 48 h
[1] = system: CAKI-1 renal
[2] = system: K-562 leukemia
[3] = system: EKVX NSCLC
[4] = system: HOP-62 NSCLC
[5] = system: HCC-2998 colon
[6] = system: DU-145 prostate
[7] = system: MDA-MB-231 breast
[8] = system: MALME-3M melanoma
[9] = system: SF-539 CNS
[10] = system: SF-268 CNS
[11] = system: U251 CNS
[12] = system: HS 578T breast
[13] = system: 786-0 renal
[14] = system: HCT-15 colon
[15] = system: TK-10 renal
[16] = system: UACC-257 melanoma
[17] = system: HT29 colon
[18] = system: HOP-92 NSCLC
[19] = system: A549 NSCLC
[20] = system: LOX IMVI melanoma
[21] = system: CCRF-CEM leukemia
[22] = system: RXF 393 renal
[23] = system: SK-MEL-2 melanoma
[24] = system: NCI-H460 lung
[25] = system: NCI-H522 lung
[26] = system: HCT-116 colon
[27] = system: MDA-MB-435
[28] = system: NCI/ADR-RES ovarian
[29] = system: SW-620 colon
[30] = system: SK-OV-3 ovarian
[31] = system: IGROV1 ovarian
[32] = system: OVCAR-8 ovarian
[33] = system: MCF7 breast
[34] = system: SK-MEL-5 melanoma
[35] = system: UO-31 renal
[36] = system: SR leukemia
[37] = system: SNB-75 CNS
[38] = system: SK-MEL-28 melanoma
[39] = system: HL-60(TB) leukemia
[40] = system: T-47D breast
[41] = system: PC-3 prostate
[42] = system: OVCAR-4 ovarian
[43] = system: SF-295 CNS
[44] = system: MOLT-4 leukemia
[45] = system: M14 melanoma
[46] = system: OVCAR-5 ovarian
[47] = system: COLO 205 colon
[48] = system: RPMI-8226 leukemia
[49] = system: UACC-62 melanoma
[50] = system: ACHN renal
[51] = system: OVCAR-3 ovarian
[52] = system: BT-549 breast
[53] = system: KM12 colon
[54] = system: NCI-H23 lung
[55] = system: SNB-19 CNS
[56] = system: SN12C renal
[57] = system: NCI-H226 lung
[58] = system: A498 renal

`Cc1cc(C)cc(Nc2nccc(-c3c(-c4ccc(F)cc4)ncn3C3CCNCC3)n2)c1` showed a GI50 [1] of 1.24 µM, a TGI [1] of 2.72 µM and a GI50 [2] of 1030 nM. It also gave a TGI [2] of 3.59 µM, a GI50 [3] of 1400 nM and a TGI [3] of 3.19 µM. It also gave a GI50 [4] of 2.04 µM, a TGI [4] of 3.95 µM and a GI50 [5] of 1.28 µM. The TGI [5] was 2640 nM, the GI50 [6] was 1.46 µM and the TGI [6] was 3.14 µM. For the same compound, the GI50 [7] was 1500 nM, the TGI [7] was 3090 nM and the GI50 [8] was 1610 nM. It also gave a TGI [8] of 3.39 µM, a GI50 [9] of 1750 nM and a TGI [9] of 3.25 µM. For the same compound, the GI50 [10] was 1480 nM, the TGI [10] was 3.96 µM and the GI50 [11] was 1650 nM. The TGI [11] was 3.25 µM, the GI50 [12] was 1.96 µM and the TGI [12] was 4.36 µM. It also gave a GI50 [13] of 1.31 µM, a TGI [13] of 2.79 µM and a GI50 [14] of 1.15 µM. For the same compound, the TGI [14] was 2850 nM, the GI50 [15] was 0.717 µM and the TGI [15] was 2.95 µM. The GI50 [16] was 2090 nM, the TGI [16] was 4.17 µM and the GI50 [17] was 0.78 µM. The TGI [17] was 2.43 µM, the GI50 [18] was 1340 nM and the TGI [18] was 3.53 µM. The GI50 [19] was 1090 nM, the TGI [19] was 3.16 µM and the GI50 [20] was 1540 nM. It also gave a TGI [20] of 2880 nM, a GI50 [21] of 1920 nM and a TGI [21] of 5.97 µM. The GI50 [22] was 1.39 µM, the TGI [22] was 2.92 µM and the GI50 [23] was 2.04 µM. For the same compound, the TGI [23] was 4.09 µM, the GI50 [24] was 1270 nM and the TGI [24] was 2.77 µM. For the same compound, the GI50 [25] was 1500 nM, the TGI [25] was 3.45 µM and the GI50 [26] was 1.13 µM. It also gave a TGI [26] of 2360 nM, a GI50 [27] of 767 nM and a TGI [27] of 2.09 µM. The GI50 [28] was 1.79 µM, the TGI [28] was 4.07 µM and the GI50 [29] was 1.44 µM. For the same compound, the TGI [29] was 3.07 µM, the GI50 [30] was 2.13 µM and the TGI [30] was 5.09 µM. The GI50 [31] was 0.312 µM, the TGI [31] was 1.67 µM and the GI50 [32] was 1660 nM. It also gave a TGI [32] of 5.01 µM, a GI50 [33] of 0.566 µM and a TGI [33] of 2.09 µM. The GI50 [34] was 1750 nM, the TGI [34] was 3.31 µM and the GI50 [35] was 0.692 µM. It also gave a TGI [35] of 2.15 µM, a GI50 [36] of 1010 nM and a TGI [36] of 3.61 µM. The GI50 [37] was 1.25 µM, the TGI [37] was 5.24 µM and the GI50 [38] was 1.78 µM. It also gave a TGI [38] of 3.26 µM, a GI50 [39] of 1.6 µM and a TGI [39] of 3.68 µM. The GI50 [40] was 1.42 µM, the TGI [40] was 3.79 µM and the GI50 [41] was 1.56 µM. For the same compound, the TGI [41] was 3.01 µM, the GI50 [42] was 1.49 µM and the TGI [42] was 3.46 µM. For the same compound, the GI50 [43] was 1850 nM, the TGI [43] was 3.58 µM and the GI50 [44] was 2030 nM. The TGI [44] was 5.32 µM, the GI50 [45] was 1.59 µM and the TGI [45] was 3.18 µM. The GI50 [46] was 1.67 µM, the TGI [46] was 3.98 µM and the GI50 [47] was 1.41 µM. It also gave a TGI [47] of 3.21 µM, a GI50 [48] of 2070 nM and a TGI [48] of 5.18 µM. The GI50 [49] was 1550 nM, the TGI [49] was 2950 nM and the GI50 [50] was 0.46 µM. For the same compound, the TGI [50] was 1.79 µM, the GI50 [51] was 1.39 µM and the TGI [51] was 2.87 µM. It also gave a GI50 [52] of 1520 nM, a TGI [52] of 3.11 µM and a GI50 [53] of 1.74 µM. It also gave a TGI [53] of 3.57 µM, a GI50 [54] of 1880 nM and a TGI [54] of 4.21 µM. The GI50 [55] was 1.68 µM, the TGI [55] was 3.71 µM and the GI50 [56] was 1.21 µM. The TGI [56] was 2.59 µM, the GI50 [57] was 1.67 µM and the TGI [57] was 5.12 µM.

Work on `CC(=O)OC1CCC2(C)C(CCC3C2CCC2(C)C(C4=CC(=O)OC4)CCC32)C1` (configuration not stated) yielded a GI50 [1] of 11.2 µM, a TGI [1] of 33.1 µM and a GI50 [2] of 2020 nM. It also gave a TGI [2] of 5.27 µM, a GI50 [4] of 14.5 µM and a TGI [4] of 38.3 µM. The GI50 [5] was 23.8 µM, the TGI [5] was over 100000 nM and the GI50 [6] was 14.7 µM. For the same compound, the TGI [6] was 40.3 µM, the GI50 [7] was 725 nM and the TGI [7] was 2810 nM. It also gave a GI50 [8] of 4230 nM, a TGI [8] of 23.1 µM and a GI50 [9] of 2680 nM. It also gave a TGI [9] of 9.15 µM, a GI50 [10] of 2380 nM and a TGI [10] of 10.1 µM. It also gave a GI50 [12] of 4.68 µM, a TGI [12] of 32.1 µM and a GI50 [13] of 15.6 µM. The TGI [13] was 39.7 µM, the GI50 [14] was 16.2 µM and the TGI [14] was over 100000 nM. It also gave a GI50 [15] of 5.53 µM, a TGI [15] of 22.9 µM and a GI50 [17] of 13.1 µM. For the same compound, the TGI [17] was 75.6 µM, the GI50 [18] was 2930 nM and the TGI [18] was 22.6 µM. The GI50 [19] was 3050 nM, the TGI [19] was 19.7 µM and the GI50 [20] was 420 nM. It also gave a TGI [20] of over 100000 nM, a GI50 [21] of 1450 nM and a TGI [21] of 4.62 µM. For the same compound, the GI50 [22] was 8.73 µM, the TGI [22] was 28.7 µM and the GI50 [23] was 7.72 µM. It also gave a TGI [23] of 34.4 µM, a GI50 [24] of 681 nM and a TGI [24] of 11 µM. The GI50 [25] was 1530 nM, the TGI [25] was 3.99 µM and the GI50 [26] was 7.66 µM. The TGI [26] was over 100000 nM, the GI50 [27] was 4200 nM and the TGI [27] was 33.5 µM. For the same compound, the GI50 [28] was 8.37 µM, the TGI [28] was 42.7 µM and the GI50 [29] was 32 µM. For the same compound, the TGI [29] was over 100 µM, the GI50 [30] was 19.9 µM and the TGI [30] was 49 µM. It also gave a GI50 [31] of 16.9 µM, a TGI [31] of 53.2 µM and a GI50 [32] of 4200 nM. The TGI [32] was 36.7 µM, the GI50 [33] was 9.07 µM and the TGI [33] was 95.7 µM. For the same compound, the GI50 [34] was 2370 nM, the TGI [34] was 6.58 µM and the GI50 [35] was 16.1 µM. For the same compound, the TGI [35] was 49.9 µM, the GI50 [36] was 468 nM and the TGI [36] was 10.9 µM. For the same compound, the GI50 [37] was 11.6 µM, the TGI [37] was 30.2 µM and the GI50 [38] was 4.75 µM. It also gave a TGI [38] of 22 µM, a GI50 [39] of 7.9 µM and a TGI [39] of 30.7 µM. The GI50 [40] was 13.1 µM, the TGI [40] was 45.5 µM and the GI50 [58] was 1430 nM. For the same compound, the TGI [58] was 3.4 µM, the GI50 [41] was 5.07 µM and the TGI [41] was 25.7 µM. It also gave a GI50 [42] of 12.1 µM, a TGI [42] of 95.1 µM and a GI50 [44] of 2600 nM. For the same compound, the TGI [44] was 6.3 µM, the GI50 [45] was 5.93 µM and the TGI [45] was over 100 µM. The GI50 [46] was 11.5 µM, the TGI [46] was 55.8 µM and the GI50 [47] was 12.8 µM. For the same compound, the TGI [47] was over 100 µM, the GI50 [48] was 928 nM and the TGI [48] was 3.03 µM. The GI50 [49] was 1010 nM, the TGI [49] was 2740 nM and the GI50 [50] was 12.3 µM. It also gave a TGI [50] of 38.9 µM, a GI50 [51] of 20.6 µM and a TGI [51] of 86 µM. The GI50 [52] was 4190 nM, the TGI [52] was 25.4 µM and the GI50 [53] was 22.2 µM. The TGI [53] was over 100 µM, the GI50 [54] was 3460 nM and the TGI [54] was 14.5 µM. It also gave a GI50 [55] of 8.49 µM, a TGI [55] of 38.4 µM and a GI50 [56] of 11.1 µM. For the same compound, the TGI [56] was 99.1 µM, the GI50 [57] was 22.1 µM and the TGI [57] was 65.1 µM.
